Source: EP0460488B1, “Sulfur-containing heterocyclic compounds” (Takeda Chemical Industries, Ltd., priority 1990, dated 1991)

tested on: bone resorption; test: Study on bone resorption inhibition: 45Ca release from cultured rat fetal bones (method of Raisz); assay type: cell-based, Sprague-Dawley rat; settings: description for DK (own example numbering); rat fetal bone culture, 2 days with test compound; mean of 5 bones; test concentration not given
Experimental: Bone resorption inhibitory activity was determined according to the method of Raisz [Journal of Clinical Investigation (J. Clin. Invest.) 44, 103-116 (1965)].
(§1) That is, a Sprague-Dawley rat at day 19 of pregnancy was subcutaneously dosed with 50 µCi of 45Ca (a radioisotope of calcium, in CaCl2). On the next day, the animal was laparotomized and the fetuses were removed aseptically. The right and left […] (radii and ulnae) of each rat fetus were dissected from the body under the dissection microscope. The connective tissue and cartilages were removed as far as possible to prepare bone culture specimens. Each piece of bone was incubated in 0.6 ml of BGJb medium (Fitton-Jackson modification [the tradename owned by GIBCO Laboratories, U.S.A.]) containing 2 mg/ml of bovine serum albumin at 37°C for 24 hours. Then, incubation was carried out for additional two days in the above-mentioned medium. The radioactivities of 45Ca in the culture medium and bone were determined and the ratio (%) of 45Ca released from the bone to the medium was calculated according to the following formula. A =(B)/(B + C)x 100 [formula] A = ratio (%) of ^45Ca released from the bone to the medium B = ^45Ca count in the medium C = ^45Ca count in the bone
The bones from the fetuses of the same litter were similarly incubated without addition of the test compound for two days and served as controls.
The values for 5 bones per group were expressed in mean. The ratio (%) of this value for the treatment group to the control value was determined.
as §1, with “of ^45Ca” for “of 45Ca”

Row | Compound | 45Ca release (% to control)
1 | COc1cc2c(cc1OC)C(=O)CSC(C(=O)Nc1nc(-c3ccccc3)cs1)C2 (centres unmarked) [compound 25] | 69 % to control
2 | O=C1CSC(C(=O)Nc2ccc(Cl)cc2)Cc2ccc(Cl)cc21 (centres unmarked) [compound 26] | 68 % to control
3 | Cc1ccc2c(c1)C(=O)CSC(C(=O)Nc1ccc(Cl)cc1)C2 (centres unmarked) [compound 28] | 61 % to control
4 | methyl trans-4,7-dimethyl-5-oxo-1,2,4,5-tetrahydro-3-benzothiepine-2-carboxylate [Reference Example 32] | 63 % to control

same assay, conditions: rat fetal bone culture, 2 days with test compound; mean of 5 bones; ratio of treatment group to control; test concentration not given

Row | Compound | ^45Ca release (% to control)
5 | COc1cc2c(cc1OC)C(=O)CSC(C(=O)Nc1nc(-c3ccccc3)cs1)C2 (centres unmarked) [Example 47] | 69 % to control
6 | O=C1CSC(C(=O)Nc2ccc(Cl)cc2)Cc2ccc(Cl)cc21 (centres unmarked) [Example 48] | 68 % to control
7 | Cc1ccc2c(c1)C(=O)CSC(C(=O)Nc1ccc(Cl)cc1)C2 (centres unmarked) [Example 50] | 61 % to control
8 | Cc1ccc2c(c1)C(=O)CSC(C(=O)N(C)Cc1ccccc1)C2 (centres unmarked) [Example 54] | 63 % to control
